Reference: patent US4673672A, “Substituted-[hydroxy(tetrahydro)-5-oxo-(2- and 3-furanyl or 2-thienyl)alkoxyphosphinyloxy]-alkanaminium hydroxide, inner salt oxides” (Sandoz Pharmaceuticals Corp., priority 1986, dated 1987)
Structures can show the parent of a compound that is named as a salt.

What was measured:
[1] = tested on: Meth A sarcoma cells; test: Meth A sarcoma implanted in CBF1 mice, tumor growth and survival; format: in vivo; conditions: p.o., 50 μg, 28 days; 7.3×10^6 Meth A sarcoma cells implanted; no control animals survived
Excerpt: Meth A fibrosarcoma cells were induced in BALB/C mice by administering methylcholanthrene according to the procedure of Old, et al. (L. J. Old, E. A. Boyse, D. A. Clarke, and E. Carswell, Ann. N.Y. Acad. Sci., 101, 80 (1962). These tumor cells were harvested from the peritoneal cavity 10 to 12 days after administration of methylcholanthrene. Ten CBF1 mice of 10-12 week age were each implanted with 7.3×10^6 Meth A sarcoma cells to serve as control. A second group of ten CBF1 mice were each implanted with 7.3×10^6 Meth A sarcoma cells and on day one after implant each mouse was treated p.o. with 5-50 μg of the test compound per day for a total of twenty or twenty-seven days. Tumor growth and survivors were assayed on days 7, 14, 21 and 28 after tumor implantation. Under these conditions, none of the control group animals survived, whereas 5 out of 10 animals which were administered 50 μg of the compound of Example 2 for 28 days survived and 8 out of 10 animals which were administered 50 μg of the compound of Example 5 for 28 days survived.

[2] = tested on: P815; test: Tumor Cell Cytotoxicity test (TCC test), P815; format: cell-based; conditions: 5 μg, 72 hours; alkaline phosphatase assay
Protocol: (§1) As indicated above, all of the compounds of formula I are anti-tumor agents and are, therefore, useful in inhibiting the growth of various lymphomas, sarcomas, myelomas and leukemia cell lines.
(§2) In flat bottom microtiter plates (Nunc Roskilde, Denmark) were placed Abelson 8.1 lymphoma, YAC, L1210, P815, Meth A fibrosarcoma or fresh human neuroblastoma tumor cells in DMEM+10% fetal calf serum and the tumor cell-containing plates were incubated with 1,3 and 5 μg of the test compound for a period of 6 to 72 hours. The number of tumor cells present in the Abelson 8.1, YAC, L1210 and P815 assays was determined by measuring the alkaline phosphatase as follows:
(§3) The tumor cell plates were centrifuged (500×g) for ten minutes and the supernatant flicked off. Without further washing, 100 μl of buffer containing 20 μl of diethanolamine, 2 μM of MgCl2.6H2 O, 2.5 μM of p-nitrophenylphosphate and 10 mg Triton X-100 were added. The samples were incubated for 60 minutes at room temperature and the enzymatic reaction was terminated by the addition of 100 μl of 0.5N NaOH. The absorbance was then measured at 405 nm using a Titertek Multiskan apparatus.
(§4) At a concentration of 5 μg and an incubation period of 72 hours, the following results were obtained: […]

[3] = tested on: L1210; test: Tumor Cell Cytotoxicity test (TCC test), L1210; format: cell-based; conditions: 5 μg, 72 hours; alkaline phosphatase assay
Protocol: as §1, §2, §3, §4

[4] = tested on: Abelson 8.1 lymphoma; test: Tumor Cell Cytotoxicity test (TCC test), Abelson 8.1 lymphoma; format: cell-based; conditions: 5 μg, 72 hours; alkaline phosphatase assay
Protocol: as §1, §2, §3, §4

[5] = tested on: Meth A fibrosarcoma; test: Tumor Cell Cytotoxicity test (TCC test), Meth A fibrosarcoma; format: cell-based; conditions: 5 μg, 72 hours; 3H-thymidine uptake
Protocol: as §1, §2
(§5) The number of tumor cells present in the Meth A fibrosarcoma and human neuroblastoma assays was measured by ^3 H-thymidine uptake as follows:
(§6) After 72 hours, the cells are thoroughly washed, and each well treated with ca. 0.1 μC ^3 H-thymidine. After 4-6 hours, the cells are collected using a commercial cell harvester, and the radioactivity in the […] is measured in a scintillation counter.
as §4

[6] = tested on: human neuroblastoma tumor cells; test: Tumor Cell Cytotoxicity test (TCC test), fresh human neuroblastoma tumor cells; format: cell-based; conditions: 5 μg, 72 hours; 3H-thymidine uptake
Protocol: as §1, §2, §5, §6, §4

[7] = tested on: YAC; test: Tumor Cell Cytotoxicity test (TCC test), YAC; format: cell-based; conditions: 5 μg, 72 hours; alkaline phosphatase assay
Protocol: as §1, §2, §3, §4

[8] = tested on: Abelson 8.1 tumor cells; test: Influence on Cytotoxicity of ET-18-OCH3 test; format: cell-based; conditions: 5 μg test compound, 72 hours; mouse bone marrow cell macrophages preincubated with 10 μg ET-18-OCH3 for 24 hours; ET-18-OCH3 alone set at 100%
Protocol: Bone marrow cell macrophages (10^5 /well) obtained from [BALB/CX57/BL6 ]Fl mice were incubated with 10 μg of 1-octadecyl-2-methoxy-3-phosphoryl choline (ET-18-OCH3) for 24 hours in flat bottom microtiter plates (Nunc Roskilde, Denmark), after which time they are centrifuged and washed once. Abelson 8.1 tumor cells in DMEM+10% fetal calf serum and 1,3 and 5 μg of the test compound were then added to the plates. With the cytotoxicity of ET-18-OCH3 (10 μg) alone set at 100%, the inhibition or enhancement of the cytotoxic effect, as measured by an alkaline phosphatase assay, was determined and values recorded after 72 hours for 1, 3 and 5 .eta.g of the test substance. At a concentration of 5 μg, the following results were obtained: […]

In the case of `CCCCCCCCCCCCCCCCCCC1(COP(=O)([O-])OCC[N+](C)(C)C)CCC(=O)O1` (stereo not shown) [Example 2, 2-[hydroxy(tetrahydro)-2-(octadecyl-5-oxo-2-furanyl)methoxyphosphinyloxy]-N,N,N-trimethyl-ethanaminium hydroxide, inner salt-4-oxide], the animals survived [1] is reported as 5 out of 10, the “% Inhibition P815” value [2] is reported as 84% and the “% Inhibition L1210” value [3] is reported as 69%. For the same compound, the “% Inhibition Abel.” value [4] was 97%, the “% Inhibition Meth A” value [5] was 98% and the “% Inhibition neuro.” value [6] was 59%. For the same compound, the “% Inhibition YAC” value [7] was 71% and the “% Enhancement (of the cytotoxic effect of ET-18-OCH3)” value (from here on “% Enhancement”) [8] was 99.5%.
In the case of `CCCCCCCCCCCCCCCCCCC1(COP(=O)([O-])OCC[N+](C)(C)C)CCOC1` (stereo not shown) [Example 7, 2-[(3-octadecyltetrahydro-3-furanylmethoxy)-hydroxyphosphinyloxy]-N,N,N-trimethyl ethanaminium hydroxide, inner salt-4-oxide], the “% Inhibition Abel.” value [4] is reported as 70-90% and the “% Enhancement” value [8] is reported as 90%.
In the case of `CCCCCCCCCCCCCCCCCCOCC1(COP(=O)([O-])OCC[N+](C)(C)C)CCCO1` (stereo not shown) [Example 5, 2-[(2-octadecyloxymethyltetrahydro-2-furanylmethoxy)-hydroxyphoshphinyloxyl]-N,N,N-trimethylethanaminium hydroxide inner salt-4-oxide], the animals survived [1] is reported as 8 out of 10, the “% Inhibition Abel.” value [4] is reported as 98% and the “% Inhibition YAC” value [7] is reported as 96%. For the same compound, the “% Enhancement” value [8] was over 90%.
For `CCCCCCCCCCCCCCCCCCC1(COP(=O)([O-])OCC[N+](C)(C)C)COC(=O)C1` (stereo not shown) [Example 6, 2-[hydroxy(tetrahydro)-3-(octadecyl-5-oxo-3-furanyl)methoxyphosphinyloxy]-N,N,N-trimethyl ethanaminium hydroxide, inner salt-4-oxide], the “% Inhibition Abel.” value [4] was 50-70% and the “% Enhancement” value [8] was 90%.
